How the values were obtained:
[1] = tested on: cortical neurones in the presence of astrocytes in culture; test: Prior cytotoxicity, microscopic observation after 48 hours; format: cell-based; settings: 100 μM, 48 hours incubation
Method: (§1) • Cell type: Initial culture of cortical neurones from 14 day rat embryos and initial culture of cortical astrocytes from newborn rats. • Culture medium: DMEM-Ham F12 (Invitrogen 21331020) • B27 2% (invitrogen 17504044) • L-glutamine 2 mM (Invitrogen 25030024) • Penicillin 50 UI/ml—Streptomycin 50 μg/ml (Invitrogen 15070063) • Nerve Growth Factor 10 ng/ml (NGF, Invitrogen 13290.010) • Survival medium: MEM (Invitrogen 21090022) • L-glutamine 2 mM (Invitrogen 25030024) • Penicillin 50 UI/ml—Streptomycin 50 μg/ml (Invitrogen 15070063) • Supplement N2 (Invitrogen 17502-048) 1.2 Prior Cytotoxicity • Platelets: 96 wells • Culture time: 8 days • Cells/well: cortical neurones+astrocytes • Product range: from 100 μM then ratio 3 • Replicates: 3 • Cell/product contact: 48 hours • Evaluation parameters: microscopic observation and MTT hydrolysis. • MTT: 3-(4,5-dimethylthiozol-2-yl)-2,5-diphenyltetrazolium bromide 1.3 Treatment and Analysis of the Network of Extensions Marked with Antineurofilament Antibody
A first experiment was carried out (conventional test used to measure the level of cell survival) in order to investigate the cytotoxicity of etifoxine in relation to cortical neurones in the presence of astrocytes in culture and thus to determine the maximum non-toxic concentration of etifoxine.

[2] = tested on: mixed cultures of rat cortical neurones and astrocytes; test: Density of neuritic extensions marked by anti-neurofilament antibody, with or without excess glutamate; format: cell-based; settings: for density of neurofilaments: control culture medium
From the text: The principle of the investigation consisted of evaluating the survival of cortical neurones in co-culture with astrocytes after the application of a neurotoxic agent, excess glutamate.
Neurone survival is quantified by the density of the system of neuritic extensions marked by an anti-neurofilament antibody in the absence or presence of glutamate.
as §1
The cortical neurones were obtained from the cortex of 14 day rat embryos cultured in platelet culture medium 96 and then in a stove at 37° C. and 5% CO2 with saturated humidity. After 2 days culture astrocytes obtained from newborn rat cortex were seeded in the wells (in a ratio of 1 astrocyte to 4 neurones). After 10 days culture the mature neurones synthesised neurofilaments (structural protein specific to mature neurones); in addition to this these neurones expressed functional receptors to glutamate on their surfaces and could therefore be intoxicated.
On the 12th day of culture the medium was replaced by survival medium with or without etifoxine in 3 concentrations and the neurones were or were not intoxicated with glutamate (Sigma G1501) at a strength of 2 mM and 10 mM. Each culture condition was applied to 4 wells. The cultures were incubated for 2 periods (6 and 24 hours).
A positive control was carried out in the survival culture medium containing Nerve Growth Factor (NGF; 10 ng/ml) and basic Fibroblast Growth Factor (FGFb; 5 ng/ml) and the cells were intoxicated under the same conditions.
At the end of the two incubation periods (6 and 24 hours) the cell layers were fixed and marked with a anti-68- and 200 kD neurofilament monoclonal antibody (DAKO M0762) and then developed using a mouse anti-immunoglobulin goat antibody conjugate Alexia fluor 488 (Interchim A-11029). Controls without primary antibody were performed. All the controls were negative (no non-specific labelling). After extensive washing with PBS the preparations were observed under epi-fluorescence (Nikon Diaphot 300 microscope).
2 images were obtained for each culture well (4 wells per experimental condition) using a Nikon DXM1200F camera controlled by LUCIA 6.0 software.
All the images were obtained under the same conditions and with identical camera settings.
The densities of the networks of extensions marked with anti-neurofilament antibody were examined using LUCIA 6.0 software. Initial image processing made it possible to increase the intensity of the specific marking on the extensions. Areas in which marking was positive were binarised and the percentage marking per image was determined (marked surface area/total surface area examined).
The results (mean values±standard error with respect to the mean (SEM) were expressed as percentage marking per microscope field (n=8 measurements/culture conditions). 2-factor analysis of variance (Etifoxine and glutamate), followed by the Student Newman-Keuls multiple comparisons test was used for statistical comparison of the results. […]

[3] = tested on: mice subjected to histotoxic hypoxia induced by potassium cyanide; test: KCN hypoxia (i.p.) in mice (survival time); format: in vivo, CD1 male mice; settings: KCN 15 mg/kg i.p.
[4] = compound i.p. dose 3, first i.p. series
[5] = compound i.p. dose 10, first i.p. series
[6] = compound i.p. dose 30, first i.p. series (control 106 ± 9)
[7] = compound i.p. dose 30, second i.p. series (control 91 ± 4)
[8] = compound i.p. dose 50, second i.p. series
[9] = compound i.p. dose 75, second i.p. series

In the case of `CCNC1=Nc2ccc(Cl)cc2C(C)(c2ccccc2)O1.Cl` (centres unmarked) [etifoxine, 6-chloro-2-ethylamino-4-methyl-4-phenyl-4H-[3,1]benzoxazine hydrochloride], the “astrocyte mortality, visual examination with a microscope” value [1] is reported as “astrocyte mortality was observed”, the “density of marked neurofilaments” value ([2]; control culture medium (without glutamate), 6 hours, significant at 10 μM) is reported as “increased the density of marked neurofilaments in a dose-dependent way” and the density of neurofilaments ([2]; 24 hours, 10 μM) is reported as “increased the density of neurofilaments”. The density of neurofilaments ([2]; 24 hours, 1 and 3 μM) was “without effect”, the “density of neurofilaments in the presence of glutamate” value ([2]; glutamate 2 mM, 24 hours, compound 10 μM) was “opposed the effects of 2 mM of glutamate” and the “density of neurofilaments in the presence of glutamate” value ([2]; glutamate 2 and 10 mM, 6 hours, compound 3 and 10 μM) was “opposed the decrease in density of neurofilaments induced by glutamate”. The Percentage variation [3, 4] was “+15%”, the “Survival time in seconds (m ± sem)” value [3, 4] was 122 ± 7 s and the Percentage variation [3, 5] was “+7%”. For the same compound, the “Survival time in seconds (m ± sem)” value [3, 5] was 113 ± 5 s, the Percentage variation [3, 6] was “+22%” and the “Survival time in seconds (m ± sem)” value [3, 6] was 129 ± 11 s. For the same compound, the Percentage variation [3, 7] was “+19%”, the “Survival time in seconds (m ± sem)” value [3, 7] was 108 ± 4 s and the Percentage variation [3, 8] was “+36%”. The “Survival time in seconds (m ± sem)” value [3, 8] was 124 ± 8 s, the Percentage variation [3, 9] was “+46%” and the “Survival time in seconds (m ± sem)” value [3, 9] was 133 ± 6 s. For the same compound, the Percentage variation ([3]; compound p.o. dose 100) was −13%, the “Survival time in seconds (m ± sem)” value ([3]; compound p.o. dose 100) was 94 ± 6 s and the Percentage variation ([3]; compound p.o. dose 200) was “+14%”. The “Survival time in seconds (m ± sem)” value ([3]; compound p.o. dose 200) was 123 ± 12 s, the Percentage variation ([3]; compound p.o. dose 300) was −6% and the “Survival time in seconds (m ± sem)” value ([3]; compound p.o. dose 300) was 102 ± 7 s. The survival time ([3]; oral administration) was “did not significantly affect survival time” and the time to death ([3]; over 50 mg/kg i.p.) was “significantly increased the time to death”.

From US8338410B2, “Neuroprotective compounds and pharmaceutical compositions comprising them” (Biocodex, priority 2005, dated 2012)
